Columns and labels:
Assay in all cases: relative viability (nuclei count vs DMSO), 5 days (fraction); higher = more cells survive
[1] = compound: C1CC2=C(C1)C=C(C=C2)OC3=NC(=C4C(=N3)N(C=N4)CC5=CC=C(C=C5)C6=CC=CC=C6)N[C@@H](CC7=CC=CC=C7)CO [QS11] + C[C@]1(O)C[C@@H](c2nc(-c3ccc4ccc(-c5ccccc5)nc4c3)c3c(N)nccn32)C1 [Linsitinib] (partner 1 µM)
Summary of the method: (§1)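 Nuclei were stained with Hoechst during a one-step fixation (final 0.05% Triton X-100, 1% formaldehyde, 1 ug/ml Hoechst) carried out 5 days after dosing, then counted on 4× images. The cells, lung cancer lines in 1536-well plates, had been dosed by pin tool the day after seeding with one drug alone or a fixed anchor-drug dose plus five library-drug doses (not always all listed) in √10 steps. Relative viability is the nuclei count in treated wells divided by that in vehicle wells, and each value is the median of duplicate plates.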

[2] = compound: C1CC2=C(C1)C=C(C=C2)OC3=NC(=C4C(=N3)N(C=N4)CC5=CC=C(C=C5)C6=CC=CC=C6)N[C@@H](CC7=CC=CC=C7)CO [QS11] + O=C(c1cc(Cc2n[nH]c(=O)c3ccccc23)ccc1F)N1CCN(C(=O)C2CC2)CC1 [Olaparib] (partner 8 µM)
Summary of the method: as §1

[3] = compound: C1CC2=C(C1)C=C(C=C2)OC3=NC(=C4C(=N3)N(C=N4)CC5=CC=C(C=C5)C6=CC=CC=C6)N[C@@H](CC7=CC=CC=C7)CO [QS11] + C[C@@H](Oc1cc(-c2cnn(C3CCNCC3)c2)cnc1N)c1c(Cl)ccc(F)c1Cl [Crizotinib] (partner 1 µM)
Summary of the method: as §1

[4] = compound: C1CC2=C(C1)C=C(C=C2)OC3=NC(=C4C(=N3)N(C=N4)CC5=CC=C(C=C5)C6=CC=CC=C6)N[C@@H](CC7=CC=CC=C7)CO [QS11] + Cc1nc(NC(=O)N2CCC[C@H]2C(N)=O)sc1-c1ccnc(C(C)(C)C(F)(F)F)c1 [Alpelisib] (partner 2 µM)
Summary of the method: as §1

Cell Line | relative viability ([1]; first compound 0.08 µM) | relative viability ([1]; first compound 0.253 µM) | relative viability ([1]; first compound 0.8 µM) | relative viability ([1]; first compound 2.53 µM) | relative viability ([1]; first compound 8 µM) | relative viability ([2]; first compound 0.08 µM) | relative viability ([2]; first compound 0.253 µM) | relative viability ([2]; first compound 0.8 µM) | relative viability ([2]; first compound 2.53 µM) | relative viability ([2]; first compound 8 µM) | relative viability ([3]; first compound 0.08 µM) | relative viability ([3]; first compound 0.253 µM) | relative viability ([3]; first compound 0.8 µM) | relative viability ([3]; first compound 2.53 µM) | relative viability ([3]; first compound 8 µM) | relative viability ([4]; first compound 0.08 µM) | relative viability ([4]; first compound 0.253 µM) | relative viability ([4]; first compound 0.8 µM) | relative viability ([4]; first compound 2.53 µM) | relative viability ([4]; first compound 8 µM)
NCI-H2009 | 1.25 | 1.26 | 1.13 | 1.03 | 0.95 | 0.596 | 0.816 | 0.679 | 0.613 | 0.49 | 1.02 | 1.09 | 0.882 | 1.03 | 0.791 | 1.18 | 1.19 | 1.12 | 0.969 | 0.999
SK-LU-1 | 1.1 | 1.08 | 0.989 | 0.71 | 0.732 | 0.354 | 0.442 | 0.466 | 0.356 | 0.452 | 1.1 | 0.822 | 0.63 | 0.544 | 0.785 | 1.14 | 0.934 | 0.917 | 0.774 | 0.712
RERF-LC-KJ | 0.933 | 0.929 | 0.854 | 0.868 | 0.782 | 0.988 | 0.975 | 0.885 | 0.822 | 0.593 | 0.467 | 0.906 | 0.847 | 0.769 | 0.759 | 0.851 | 0.779 | 0.928 | 0.675 | 0.852
NCI-H322M | 0.93 | 0.914 | 0.931 | 1.02 | 0.936 | 0.715 | 0.947 | 0.802 | 0.846 | 1.06 | 0.934 | 0.835 | 0.79 | 0.754 | 1 | 0.84 | 0.83 | 0.87 | 0.863 | 0.867
LK-2 | 0.341 | 0.619 | 0.668 | 0.31 | 0.81 | 0.569 | 0.764 | 1.03 | 0.734 | 0.856 | 0.25 | 0.221 | 0.215 | 0.266 | 0.214 | 1.01 | 1.15 | 1.21 | 0.868 | 1.59
SK-MES-1 | 1.13 | 1.08 | 0.959 | 1.03 | 1.05 | 0.672 | 0.677 | 0.717 | 0.75 | 0.804 | 1.12 | 0.98 | 0.993 | 0.977 | 0.929 | 0.997 | 0.919 | 0.918 | 0.886 | 0.849
NCI-H1299 | 0.999 | 0.995 | 0.787 | 0.87 | 0.959 | 0.955 | 1.03 | 0.848 | 0.928 | 0.793 | 0.998 | 0.947 | 0.948 | 0.892 | 0.699 | 1.09 | 1.1 | 1.02 | 0.962 | 1.05
NCI-H2228 | 0.658 | 0.555 | 0.809 | 0.834 | 0.797 | 0.586 | 0.663 | 0.727 | 0.648 | 0.993 | 0.425 | 0.467 | 0.457 | 0.356 | 0.41 | 0.705 | 0.854 | 0.762 | 1.14 | 1.11
NCI-H1792 | – | 0.559 | 0.43 | 0.537 | 0.68 | – | 0.442 | 0.459 | 0.519 | 0.394 | – | 1.06 | 0.662 | 1.11 | 1.33 | – | 0.708 | 0.539 | 0.609 | 0.785
LOU-NH91 | 0.901 | 0.862 | – | 0.891 | 0.876 | 0.893 | 0.9 | 0.876 | 0.937 | 0.998 | 0.713 | 0.709 | – | 0.694 | 0.744 | 0.687 | 0.636 | – | 0.691 | 0.697
IA-LM | 0.548 | 0.417 | 0.29 | 0.389 | 0.601 | 1 | 0.924 | 0.706 | 0.741 | 0.78 | 0.697 | 0.94 | 0.675 | 0.693 | 0.712 | 0.665 | 0.747 | 0.378 | 0.826 | 0.473
SW 900 | – | – | – | – | – | 0.941 | 1.03 | 0.615 | 0.739 | 0.511 | – | – | – | – | – | – | – | – | – | –
LU99A | 0.529 | 0.561 | 0.555 | 0.465 | 0.38 | 0.253 | 0.311 | 0.27 | 0.258 | 0.253 | 0.554 | 0.586 | 0.544 | 0.446 | 0.385 | 0.486 | 0.528 | 0.596 | 0.367 | 0.405
NCI-H661 | 0.522 | 0.681 | 0.556 | 0.408 | 0.549 | 0.708 | 0.791 | 0.637 | 0.745 | 0.71 | 0.887 | 1.08 | 0.753 | 0.872 | 0.985 | 0.657 | 0.599 | 0.658 | 0.637 | 0.646
EBC-1 | 0.966 | 0.86 | 0.696 | 0.75 | 1.05 | 0.758 | 0.813 | 0.675 | 0.644 | 0.68 | 0.19 | 0.203 | 0.206 | 0.224 | 0.238 | 0.932 | 0.77 | 0.76 | 0.816 | 0.667
NCI-H3122 | 1 | 1.17 | 0.919 | 1.17 | 0.842 | 0.636 | 0.694 | – | 0.601 | 0.637 | 0.25 | 0.3 | 0.313 | 0.436 | 0.616 | 0.879 | 1 | 0.745 | 1.12 | 0.839
